The text below walks through data of patent publication US20250290142A1, “DETECTING OXIDATIVE STRESS IN CELL(S) USING EPIGENETIC MEANS” (Evonik Operations GmbH, priority 2022, published 2025).

For this assay, the system named is T-Skin models (reconstructed human skin). To be noted: maintained 24 hrs.

Description: T-Skin models were obtained from Episkin SA, France which is composed of reconstructed human skin. Each skin model consists of a dermal equivalent overlaid by a stratified, well-differentiated epidermis derived from normal human keratinocytes. Upon receiving the skin models, it was recovered by incubating in T-Skin culture medium overnight at 37° C. in a 5% CO2 incubator.
The genomic DNA (500 ng) from tissue samples were subjected to bisulfite conversion using the EZ DNA Methylation-Gold™ Kit (Zymo Research). The methylation levels were quantified using Infinium MethylationEPIC v2.0 Kit (Illumina) which can analyze over 850,000 methylation sites quantitatively across the genome at single-nucleotide resolution.
Quality check on samples was performed to keep probes that have a detection P-value <0.01 in one or more samples or have a mean detection P-value <0.05 in all samples. […]
Prior to differential methylation analysis, the probes with non-specific binding, cross reactive probes, probes affected by common SNPs, and probes annotated to the X, Y chromosomes were also filtered out. Beta-value and M-value of normalized and filtered samples were calculated using getBeta and getM function respectively, the samples were then subjected to further downstream analysis. […]

`OO` [H2O2, Hydrogen peroxide]: where the note is “high H2O2 (200 μM) for 2 hrs”, the “methylation status of probes vs cells without OS (FIG. 4A)” value is given as “large number of probes that are hypomethylated”. The “methylation status of probes vs cells without OS (FIG. 3A)” value (low H2O2 (100 μM) for 2 hrs) is reported as “large number of probes that are hypomethylated”.
